Experimental data reported in patent US10385024B2, “Compounds and methods for inhibiting NHE-mediated antiport in the treatment of disorders associated with fluid retention or salt overload and gastrointestinal tract disorders” (Ardelyx, Inc., priority 2012, dated 2019).

Key:
[1] = tested on: absorption of sodium from the intestinal lumen; test: Inhibition of intestinal sodium absorption (urinary sodium and fecal form); assay type: in vivo, Sprague-Dawley rats; conditions: rat; for response vs control in vivo at 3 mg/kg: 3 mg/kg oral gavage, urine 16 h post-dose, asterisks = significance vs vehicle (*P<0.05, **P<0.01, ***P<0.001), read-out: uNa (% of vehicle)
Summary of the method: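 Sprague-Dawley rats (8 weeks, n=6) dosed by oral gavage with compound or water vehicle (10 mL/kg) in late afternoon, then housed in metabolic cages. Over 16 h, urinary sodium measured by ion chromatography and expressed as % of vehicle mean; fecal form scored 1–5, averaged from two observations.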

[2] = Pharmacokinetic evaluation in bile; assay type: in vivo, Sprague-Dawley rats; conditions: bile duct cannulated rats, oral gavage, nominal dose 30 mg/kg, bile collected over 24 h, mean of n=3
Procedure: Bile duct cannulated (BDC) Sprague-Dawley rats were dosed with test compounds by oral gavage and a single aliquot of bile was collected via cannula over the 24 h following dosing. Bile samples were treated with acetonitrile and precipitated proteins were removed by centrifugation. Some compounds required liquid-liquid extraction using MTBE. After centrifugation, samples were diluted as appropriate in mobile phase and analyzed by LC-MS/MS. The concentrations of compounds in bile were determined by interpolation from a standard calibration curve prepared in rat bile from untreated BDC rats. Accurate recovery of quality control samples was confirmed to accept each analytical run. Concentration in bile is reported in nM and represents the mean result from n=3 rats.

Rat NHE-3 = biological target: T1, Rat NHE-3 (Rattus norvegicus, UniProt P26433); test: Cell-based assay of NHE-3 activity (rat NHE-3 prompt inhibition); conditions: OK cells with rat NHE-3 gene, compound present during pH recovery; for IC50: read-out: Rat NHE3 pIC50 (prompt) (converted)
T1 construct: expressed in transfected cells; host or cells: Opossum kidney (OK) cells (ATCC), transfected by electroporation
Summary of the method: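 Opossum kidney cells electroporated with rat or human NHE-3, loaded with 5 μM BCECF-AM in NH4Cl-HEPES pH 7.4 for 30 min at RT, then acidified 10 min in Na+-free choline HEPES. Na+-dependent pH recovery rates from BCECF fluorescence, averaged over ≥2 replicates, gave pIC50.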

T1 sequence (P26433 29-831): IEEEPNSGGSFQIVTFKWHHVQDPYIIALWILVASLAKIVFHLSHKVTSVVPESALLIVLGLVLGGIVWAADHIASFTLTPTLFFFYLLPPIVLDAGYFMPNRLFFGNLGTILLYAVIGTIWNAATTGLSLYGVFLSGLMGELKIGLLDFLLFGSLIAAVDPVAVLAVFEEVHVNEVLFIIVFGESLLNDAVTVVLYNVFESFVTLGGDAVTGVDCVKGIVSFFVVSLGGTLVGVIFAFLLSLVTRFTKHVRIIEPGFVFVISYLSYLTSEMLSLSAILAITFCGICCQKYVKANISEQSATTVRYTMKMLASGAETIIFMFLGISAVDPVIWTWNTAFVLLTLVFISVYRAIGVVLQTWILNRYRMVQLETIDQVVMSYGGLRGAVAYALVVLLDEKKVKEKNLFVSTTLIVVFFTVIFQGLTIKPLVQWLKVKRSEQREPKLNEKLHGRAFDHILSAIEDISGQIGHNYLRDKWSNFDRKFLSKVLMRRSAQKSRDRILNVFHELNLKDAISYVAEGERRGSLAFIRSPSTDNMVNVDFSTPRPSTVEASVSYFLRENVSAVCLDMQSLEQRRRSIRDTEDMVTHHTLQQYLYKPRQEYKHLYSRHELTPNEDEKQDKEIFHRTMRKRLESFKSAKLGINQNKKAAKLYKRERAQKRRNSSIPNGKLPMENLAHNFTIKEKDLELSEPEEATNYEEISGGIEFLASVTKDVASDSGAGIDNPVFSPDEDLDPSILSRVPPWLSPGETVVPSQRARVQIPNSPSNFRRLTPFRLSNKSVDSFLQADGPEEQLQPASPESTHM

SMILES | response vs control in vivo at 3 mg/kg [1] [%] | Concentration in Bile [2] [nM] | IC50 (Rat NHE-3) [nM] | Rat NHE3 pIC50 (prompt) (Rat NHE-3) | FFS ([1]; fecal form score, scale 1 (normal pellet) to 5 (liquid fecal streams), group average, 3 mg/kg oral, 16 h post-dose, vehicle = 1)
CN1Cc2c(Cl)cc(Cl)cc2[C@H](c2cccc(S(=O)(=O)NCCOCCOCCNC(=O)CCC(CCC(=O)NCCOCCOCCNS(=O)(=O)c3cccc([C@@H]4CN(C)Cc5c(Cl)cc(Cl)cc54)c3)(CCC(=O)NCCOCCOCCNS(=O)(=O)c3cccc([C@@H]4CN(C)Cc5c(Cl)cc(Cl)cc54)c3)NC(=O)NCCS(=O)(=O)O)c2)C1 [Example 3] | < 35 | 10 | < 100 | – | –
CN1Cc2c(Cl)cc(Cl)cc2[C@H](c2cccc(S(=O)(=O)NCCOCCOCCNC(=O)CCC(CCC(=O)NCCOCCOCCNS(=O)(=O)c3cccc([C@@H]4CN(C)Cc5c(Cl)cc(Cl)cc54)c3)(CCC(=O)NCCOCCOCCNS(=O)(=O)c3cccc([C@@H]4CN(C)Cc5c(Cl)cc(Cl)cc54)c3)NC(=O)COCC(=O)O)c2)C1 [Example 6, 1-(3-((S)-6,8-dichloro-2-methyl-1,2,3,4-tetrahydroisoquinolin-4-yl)phenylsulfonamido)-13,13-bis(3-(2-(2-(2-(3-((S)-6,8-dichloro-2-methyl-1,2,3,4-tetrahydroisoquinolin-4-yl)phenylsulfonamido)ethoxy)ethoxy)ethylamino)-3-oxopropyl)-10,15-dioxo-3,6,17-trioxa-9,14-diazanonadecan-19-oic Acid] | < 35 | 21 | < 100 | – | –
CN1Cc2c(Cl)cc(Cl)cc2[C@H](c2cccc(S(=O)(=O)NCCOCCOCCNC(=O)CCC(CCC(=O)NCCOCCOCCNS(=O)(=O)c3cccc([C@@H]4CN(C)Cc5c(Cl)cc(Cl)cc54)c3)(CCC(=O)NCCOCCOCCNS(=O)(=O)c3cccc([C@@H]4CN(C)Cc5c(Cl)cc(Cl)cc54)c3)NC(=O)NC(CO)(CO)CO)c2)C1 [Example 11, N^1,N^7-bis(2-(2-(2-(3-((S)-6,8-dichloro-2-methyl-1,2,3,4-tetrahydroisoquinolin-4-yl)phenylsulfonamido)ethoxy)ethoxy)ethyl)-4-(3-(2-(2-(2-(3-((S)-6,8-dichloro-2-methyl-1,2,3,4-tetrahydroisoquinolin-4-yl)phenylsulfonamido)ethoxy)ethoxy)ethylamino)-3-oxopropyl)-4-(3-(1,3-dihydroxy-2-(hydroxymethyl)propan-2-yl)ureido)heptanediamide] | 35 to 75 | – | > 10000 | – | –
CN(C)CC(=O)NC(CCC(=O)NCCOCCOCCNS(=O)(=O)c1cccc([C@@H]2CN(C)Cc3c(Cl)cc(Cl)cc32)c1)(CCC(=O)NCCOCCOCCNS(=O)(=O)c1cccc([C@@H]2CN(C)Cc3c(Cl)cc(Cl)cc32)c1)CCC(=O)NCCOCCOCCNS(=O)(=O)c1cccc([C@@H]2CN(C)Cc3c(Cl)cc(Cl)cc32)c1 [Example 14, N1,N7-bis(2-(2-(2-(3-((S)-6,8-dichloro-2-methyl-1,2,3,4-tetrahydroisoquinolin-4-yl)phenylsulfonamido)ethoxy)ethoxy)ethyl)-4-(3-(2-(2-(2-(3-((S)-6,8-dichloro-2-methyl-1,2,3,4-tetrahydroisoquinolin-4-yl)phenylsulfonamido)ethoxy)ethoxy)ethylamino)-3-oxopropyl)-4-(2-(dimethylamino)acetamido)heptanediamide] | < 35 | 28 | < 100 | – | –
CN1Cc2c(Cl)cc(Cl)cc2[C@H](c2cccc(S(=O)(=O)NCCOCCOCCNC(=O)CCC(CCC(=O)NCCOCCOCCNS(=O)(=O)c3cccc([C@@H]4CN(C)Cc5c(Cl)cc(Cl)cc54)c3)(CCC(=O)NCCOCCOCCNS(=O)(=O)c3cccc([C@@H]4CN(C)Cc5c(Cl)cc(Cl)cc54)c3)NC(=O)NCCN3CCOCC3)c2)C1 [Example 17, N^1,N^7-bis(2-(2-(2-(3-((S)-6,8-dichloro-2-methyl-1,2,3,4-tetrahydroisoquinolin-4-yl)phenylsulfonamido)ethoxy)ethoxy)ethyl)-4-(3-(2-(2-(2-(3-((S)-6,8-dichloro-2-methyl-1,2,3,4-tetrahydroisoquinolin-4-yl)phenylsulfonamido)ethoxy)ethoxy)ethylamino)-3-oxopropyl)-4-(3-(2-morpholinoethyl)ureido)heptanediamide] | < 35 | – | < 100 | – | –
CN1Cc2c(Cl)cc(Cl)cc2[C@H](c2cccc(S(=O)(=O)NCCOCCOCCNC(=O)CCC(CCC(=O)NCCOCCOCCNS(=O)(=O)c3cccc([C@@H]4CN(C)Cc5c(Cl)cc(Cl)cc54)c3)(CCC(=O)NCCOCCOCCNS(=O)(=O)c3cccc([C@@H]4CN(C)Cc5c(Cl)cc(Cl)cc54)c3)NC(=O)CCCC(=O)O)c2)C1 [Example 36] | < 35 | 17 | – | C (C NHE3 pIC50 > 7) | –
CN1Cc2c(Cl)cc(Cl)cc2[C@H](c2cccc(S(=O)(=O)NCCOCCOCCNC(=O)CCC(CCC(=O)NCCOCCOCCNS(=O)(=O)c3cccc([C@@H]4CN(C)Cc5c(Cl)cc(Cl)cc54)c3)(CCC(=O)NCCOCCOCCNS(=O)(=O)c3cccc([C@@H]4CN(C)Cc5c(Cl)cc(Cl)cc54)c3)NC(=O)CCC(=O)O)c2)C1 [Example 40] | < 35 | 23 | – | C (C NHE3 pIC50 > 7) | –
CN1Cc2c(Cl)cc(Cl)cc2[C@H](c2cccc(S(=O)(=O)NCCOCCOCCNC(=O)NCCCN(CCCNC(=O)NCCOCCOCCNS(=O)(=O)c3cccc([C@@H]4CN(C)Cc5c(Cl)cc(Cl)cc54)c3)CCCNC(=O)NCCOCCOCCNS(=O)(=O)c3cccc([C@@H]4CN(C)Cc5c(Cl)cc(Cl)cc54)c3)c2)C1 [Example 43, (S)—N,N′-(15-(1-(3-((S)-6,8-dichloro-2-methyl-1,2,3,4-tetrahydroisoquinolin-4-yl)phenylsulfonamido)-10-oxo-3,6-dioxa-9,11-diazatetradecan-14-yl)-10,20-dioxo-3,6,24,27-tetraoxa-9,11,15,19,21-pentaazanonacosane-1,29-diyl)bis(3-((S)-6,8-dichloro-2-methyl-1,2,3,4-tetrahydroisoquinolin-4-yl)benzenesulfonamide)] | 35 to 75 | 6 | 100 to 10000 | – | –
CN1Cc2c(Cl)cc(Cl)cc2[C@H](c2cccc(S(=O)(=O)NCCOCCOCCN(C)C(=O)NCCCN(CCCNC(=O)N(C)CCOCCOCCNS(=O)(=O)c3cccc([C@@H]4CN(C)Cc5c(Cl)cc(Cl)cc54)c3)CCCNC(=O)N(C)CCOCCOCCNS(=O)(=O)c3cccc([C@@H]4CN(C)Cc5c(Cl)cc(Cl)cc54)c3)c2)C1 [Example 55] | 35 to 75 | – | – | B (B NHE3 pIC50 5-7) | 2
CN1Cc2c(Cl)cc(Cl)cc2[C@H](c2cccc(S(=O)(=O)NCCOCCOCCNC(=O)NCCCC(N)(CCCNC(=O)NCCOCCOCCNS(=O)(=O)c3cccc([C@@H]4CN(C)Cc5c(Cl)cc(Cl)cc54)c3)CCCNC(=O)NCCOCCOCCNS(=O)(=O)c3cccc([C@@H]4CN(C)Cc5c(Cl)cc(Cl)cc54)c3)c2)C1 [Example 62] | 35 to 75 | 7 | – | B (B NHE3 pIC50 5-7) | –
CN1Cc2c(Cl)cc(Cl)cc2[C@H](c2cccc(S(=O)(=O)NCCOCCOCCNC(=O)NCCCC(CCCNC(=O)NCCOCCOCCNS(=O)(=O)c3cccc([C@@H]4CN(C)Cc5c(Cl)cc(Cl)cc54)c3)(CCCNC(=O)NCCOCCOCCNS(=O)(=O)c3cccc([C@@H]4CN(C)Cc5c(Cl)cc(Cl)cc54)c3)NC(=O)NC[C@H](O)[C@@H](O)[C@H](O)[C@H](O)CO)c2)C1 [Example 65] | 35 to 75 | – | – | B (B NHE3 pIC50 5-7) | –
